Activity calls are given as the source filed them. The rule behind the calls is not given here.
These compounds were tested on HaCaT (assay: Induction of cell migration in human HaCaT cells at 30 uM by in vitro wound healing assay).
Format: functional, cell-based
With `CCN1Cc2cc(OC)ccc2CC(C)C1=O` (stereo not drawn) the Activity was “Active”. In the case of `CCCCCN1Cc2cc(OC)ccc2CC(C)C1=O` (stereo not drawn), the Activity is reported as “inactive”. In the case of `COc1ccc2c(c1)CN(C(C)C)C(=O)C(C)C2` (stereo not drawn), the Activity is reported as “inactive”. In the case of `CCCCN1Cc2cc(OC)ccc2CC(C)C1=O` (stereo not drawn), the Activity is reported as “inactive”. With `COc1ccc2c(c1)CNC(=O)C(C)C2` (stereo not drawn) the Activity was “Active”. In the case of `CCCN1Cc2cc(OC)ccc2CC(C)C1=O` (stereo not drawn), the Activity is reported as “inactive”. In the case of `COc1ccc2c(c1)CN(C)C(=O)C(C)C2` (stereo not drawn), the Activity is reported as “Active”. For `COc1ccc2c(c1)CN(Cc1ccccc1)C(=O)C(C)C2` (stereo not drawn), the Activity was “inactive”.

From ChEMBL document CHEMBL1781891, “An efficient preparation of N-alkyl-2-benzazepine derivatives and investigation of their biological activity” (Bioorg Med Chem Lett, 2009)
